Experimental data taken from PubChem BioAssay (NCI).
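Interpolation was linear, between the two tested concentrations surrounding the appropriate level; five concentrations were tested over 48 hours in 96-well plates. TGI denotes the concentration required for complete inhibition of growth.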

What was measured:
Test in all cases: NCI-60 cell line screen, 48 h
786-0 renal = test system: 786-0 renal
A549 NSCLC = test system: A549 NSCLC
ACHN renal = test system: ACHN renal
BT-549 breast = test system: BT-549 breast
CAKI-1 renal = test system: CAKI-1 renal
CCRF-CEM leukemia = test system: CCRF-CEM leukemia
DU-145 prostate = test system: DU-145 prostate
EKVX NSCLC = test system: EKVX NSCLC
HCC-2998 colon = test system: HCC-2998 colon
HCT-116 colon = test system: HCT-116 colon
HCT-15 colon = test system: HCT-15 colon
HOP-62 NSCLC = test system: HOP-62 NSCLC
HS 578T breast = test system: HS 578T breast
HT29 colon = test system: HT29 colon
IGROV1 ovarian = test system: IGROV1 ovarian
K-562 leukemia = test system: K-562 leukemia
KM12 colon = test system: KM12 colon
LOX IMVI melanoma = test system: LOX IMVI melanoma
M14 melanoma = test system: M14 melanoma
MALME-3M melanoma = test system: MALME-3M melanoma
MCF7 breast = test system: MCF7 breast
MDA-MB-231 breast = test system: MDA-MB-231 breast
MDA-MB-435 = test system: MDA-MB-435
MDA-N = test system: MDA-N
MOLT-4 leukemia = test system: MOLT-4 leukemia
NCI-H23 lung = test system: NCI-H23 lung
NCI-H460 lung = test system: NCI-H460 lung
NCI-H522 lung = test system: NCI-H522 lung
NCI/ADR-RES ovarian = test system: NCI/ADR-RES ovarian
OVCAR-3 ovarian = test system: OVCAR-3 ovarian
OVCAR-4 ovarian = test system: OVCAR-4 ovarian
OVCAR-5 ovarian = test system: OVCAR-5 ovarian
OVCAR-8 ovarian = test system: OVCAR-8 ovarian
PC-3 prostate = test system: PC-3 prostate
RPMI-8226 leukemia = test system: RPMI-8226 leukemia
RXF 393 renal = test system: RXF 393 renal
SF-268 CNS = test system: SF-268 CNS
SF-295 CNS = test system: SF-295 CNS
SK-MEL-2 melanoma = test system: SK-MEL-2 melanoma
SK-MEL-28 melanoma = test system: SK-MEL-28 melanoma
SK-OV-3 ovarian = test system: SK-OV-3 ovarian
SN12C renal = test system: SN12C renal
SNB-19 CNS = test system: SNB-19 CNS
SNB-75 CNS = test system: SNB-75 CNS
SW-620 colon = test system: SW-620 colon
T-47D breast = test system: T-47D breast
TK-10 renal = test system: TK-10 renal
U251 CNS = test system: U251 CNS
UACC-257 melanoma = test system: UACC-257 melanoma
UACC-62 melanoma = test system: UACC-62 melanoma
UO-31 renal = test system: UO-31 renal
A498 renal = test system: A498 renal
COLO 205 colon = test system: COLO 205 colon
HL-60(TB) leukemia = test system: HL-60(TB) leukemia
HOP-92 NSCLC = test system: HOP-92 NSCLC
NCI-H226 lung = test system: NCI-H226 lung
SF-539 CNS = test system: SF-539 CNS
SK-MEL-5 melanoma = test system: SK-MEL-5 melanoma

Q: `O=c1ccc2c(Cl)sc(Cl)c2[nH]1` was tested. Which TGI (786-0 renal) did it give?
A: > 100 µM

Q: What about the TGI (A549 NSCLC) of the same compound?
A: > 100 µM

Q: And the TGI (ACHN renal)?
A: > 100 µM

Q: What about the TGI (BT-549 breast) of the same compound?
A: > 100 µM

Q: What about the TGI (CAKI-1 renal) of the same compound?
A: > 100 µM

Q: What about the TGI (CCRF-CEM leukemia) of the same compound?
A: > 100 µM

Q: And the TGI (DU-145 prostate)?
A: > 100 µM

Q: And the TGI (EKVX NSCLC)?
A: > 100 µM

Q: And the TGI (HCC-2998 colon)?
A: > 100 µM

Q: And the TGI (HCT-116 colon)?
A: > 100 µM

Q: And the TGI (HCT-15 colon)?
A: > 100 µM

Q: What about the TGI (HOP-62 NSCLC) of the same compound?
A: > 100 µM

Q: And the TGI (HS 578T breast)?
A: > 100 µM

Q: What about the TGI (HT29 colon) of the same compound?
A: > 100 µM

Q: What about the TGI (IGROV1 ovarian) of the same compound?
A: > 100 µM

Q: And the TGI (K-562 leukemia)?
A: > 100 µM

Q: And the TGI (KM12 colon)?
A: > 100 µM

Q: And the TGI (LOX IMVI melanoma)?
A: > 100 µM

Q: What about the TGI (M14 melanoma) of the same compound?
A: > 100 µM

Q: And the TGI (MALME-3M melanoma)?
A: > 100 µM

Q: What about the TGI (MCF7 breast) of the same compound?
A: > 100 µM

Q: What about the TGI (MDA-MB-231 breast) of the same compound?
A: > 100 µM

Q: What about the TGI (MDA-MB-435) of the same compound?
A: > 100 µM

Q: What about the TGI (MDA-N) of the same compound?
A: > 100 µM

Q: What about the TGI (MOLT-4 leukemia) of the same compound?
A: > 100 µM

Q: What about the TGI (NCI-H23 lung) of the same compound?
A: > 100 µM

Q: What about the TGI (NCI-H460 lung) of the same compound?
A: > 100 µM

Q: What about the TGI (NCI-H522 lung) of the same compound?
A: > 100 µM

Q: What about the TGI (NCI/ADR-RES ovarian) of the same compound?
A: > 100 µM

Q: What about the TGI (OVCAR-3 ovarian) of the same compound?
A: > 100 µM

Q: And the TGI (OVCAR-4 ovarian)?
A: > 100 µM

Q: What about the TGI (OVCAR-5 ovarian) of the same compound?
A: > 100 µM

Q: And the TGI (OVCAR-8 ovarian)?
A: > 100 µM

Q: What about the TGI (PC-3 prostate) of the same compound?
A: > 100 µM

Q: What about the TGI (RPMI-8226 leukemia) of the same compound?
A: > 100 µM

Q: What about the TGI (RXF 393 renal) of the same compound?
A: > 100 µM

Q: What about the TGI (SF-268 CNS) of the same compound?
A: > 100 µM

Q: What about the TGI (SF-295 CNS) of the same compound?
A: > 100 µM

Q: And the TGI (SK-MEL-2 melanoma)?
A: > 100 µM

Q: And the TGI (SK-MEL-28 melanoma)?
A: > 100 µM

Q: And the TGI (SK-OV-3 ovarian)?
A: > 100 µM

Q: What about the TGI (SN12C renal) of the same compound?
A: > 100 µM

Q: What about the TGI (SNB-19 CNS) of the same compound?
A: > 100 µM

Q: And the TGI (SNB-75 CNS)?
A: > 100 µM

Q: And the TGI (SW-620 colon)?
A: > 100 µM

Q: What about the TGI (T-47D breast) of the same compound?
A: > 100 µM

Q: And the TGI (TK-10 renal)?
A: > 100 µM

Q: What about the TGI (U251 CNS) of the same compound?
A: > 100 µM

Q: What about the TGI (UACC-257 melanoma) of the same compound?
A: > 100 µM

Q: And the TGI (UACC-62 melanoma)?
A: > 100 µM

Q: And the TGI (UO-31 renal)?
A: > 100 µM

Q: `C=CCOC1=C(OC(C)=O)C(C2COC(C)(C)O2)OC1=O` (centres undefined) was tested. Which TGI (786-0 renal) did it give?
A: 37.4 µM

Q: And the TGI (A498 renal)?
A: > 100 µM

Q: And the TGI (A549 NSCLC)?
A: 69.4 µM

Q: What about the TGI (ACHN renal) of the same compound?
A: 32.5 µM

Q: What about the TGI (BT-549 breast) of the same compound?
A: 60.1 µM

Q: And the TGI (CAKI-1 renal)?
A: 3.89 µM

Q: What about the TGI (CCRF-CEM leukemia) of the same compound?
A: 41.7 µM

Q: And the TGI (COLO 205 colon)?
A: 36.9 µM

Q: What about the TGI (DU-145 prostate) of the same compound?
A: > 100 µM

Q: What about the TGI (EKVX NSCLC) of the same compound?
A: 39.9 µM

Q: And the TGI (HCC-2998 colon)?
A: > 100 µM

Q: And the TGI (HCT-116 colon)?
A: 36 µM

Q: What about the TGI (HCT-15 colon) of the same compound?
A: 29.8 µM

Q: What about the TGI (HL-60(TB) leukemia) of the same compound?
A: 40.3 µM

Q: What about the TGI (HOP-62 NSCLC) of the same compound?
A: > 100 µM

Q: What about the TGI (HOP-92 NSCLC) of the same compound?
A: 34.5 µM

Q: What about the TGI (HS 578T breast) of the same compound?
A: > 100 µM

Q: What about the TGI (HT29 colon) of the same compound?
A: 38.4 µM

Q: And the TGI (IGROV1 ovarian)?
A: > 100 µM

Q: And the TGI (K-562 leukemia)?
A: 35.9 µM

Q: What about the TGI (KM12 colon) of the same compound?
A: 44.3 µM

Q: What about the TGI (LOX IMVI melanoma) of the same compound?
A: 24 µM

Q: And the TGI (M14 melanoma)?
A: 53.8 µM

Q: What about the TGI (MALME-3M melanoma) of the same compound?
A: 35.1 µM

Q: What about the TGI (MCF7 breast) of the same compound?
A: 32.8 µM

Q: And the TGI (MDA-MB-231 breast)?
A: 34.5 µM

Q: And the TGI (MDA-MB-435)?
A: 46.2 µM

Q: What about the TGI (MDA-N) of the same compound?
A: > 100 µM

Q: And the TGI (MOLT-4 leukemia)?
A: 43.8 µM

Q: And the TGI (NCI-H226 lung)?
A: > 100 µM

Q: And the TGI (NCI-H23 lung)?
A: 35 µM

Q: And the TGI (NCI-H460 lung)?
A: 61.4 µM

Q: What about the TGI (NCI-H522 lung) of the same compound?
A: 5.45 µM

Q: What about the TGI (NCI/ADR-RES ovarian) of the same compound?
A: > 100 µM

Q: And the TGI (OVCAR-3 ovarian)?
A: 31.9 µM

Q: And the TGI (OVCAR-4 ovarian)?
A: 45.9 µM

Q: And the TGI (OVCAR-5 ovarian)?
A: 32.4 µM

Q: What about the TGI (OVCAR-8 ovarian) of the same compound?
A: > 100 µM

Q: What about the TGI (PC-3 prostate) of the same compound?
A: > 100 µM

Q: What about the TGI (RPMI-8226 leukemia) of the same compound?
A: 61 µM

Q: What about the TGI (RXF 393 renal) of the same compound?
A: 46.3 µM

Q: And the TGI (SF-268 CNS)?
A: > 100 µM

Q: And the TGI (SF-295 CNS)?
A: > 100 µM

Q: And the TGI (SF-539 CNS)?
A: > 100 µM

Q: What about the TGI (SK-MEL-2 melanoma) of the same compound?
A: > 100 µM

Q: What about the TGI (SK-MEL-28 melanoma) of the same compound?
A: 46.7 µM

Q: And the TGI (SK-MEL-5 melanoma)?
A: 33.6 µM

Q: What about the TGI (SK-OV-3 ovarian) of the same compound?
A: > 100 µM

Q: What about the TGI (SN12C renal) of the same compound?
A: 70.8 µM

Q: And the TGI (SNB-19 CNS)?
A: > 100 µM

Q: And the TGI (SNB-75 CNS)?
A: > 100 µM

Q: And the TGI (SW-620 colon)?
A: 32.7 µM

Q: What about the TGI (T-47D breast) of the same compound?
A: 39.7 µM

Q: And the TGI (TK-10 renal)?
A: 68.7 µM

Q: What about the TGI (U251 CNS) of the same compound?
A: 72.5 µM

Q: And the TGI (UACC-257 melanoma)?
A: 39.7 µM

Q: And the TGI (UACC-62 melanoma)?
A: 68.2 µM

Q: What about the TGI (UO-31 renal) of the same compound?
A: 33 µM
